Experimental findings from patent US12583818B2 (DAEGU-GYEONGBUK MEDICAL INNOVATION FOUNDATION, priority 2020, dated 2026) are described below.

The target in this assay is T1, Pin1 (Homo sapiens, UniProt Q13526).
T1 construct: purchased Anaspec
As to the kind of experiment: Evaluation of Pin1 enzyme inhibitory activity (Sensolyte Green Pin1 assay kit). Type of assay: biochemical. Conditions: concentration at which the Pin1 enzyme activity is inhibited; 2 hours at room temperature, fluorescence 490 nm/520 nm; read-out: Pin 1 inhibition. As to the method: In order to evaluate the Pin1 enzyme inhibitory activity of the compound represented by formula 1 according to the present invention, the following experiment was performed, and the results are shown in Table 2 below.
The enzyme activity of Pin1 protein was measured using a sensolyte Green Pin1 assay kit of Anaspec. The substrate was diluted in a buffer at a ratio of 1:100 to prepare a concentration of 1 μM, and the protein was diluted in a buffer at a ratio of 1:20 to prepare a concentration of 50 μg/ml. In addition, a developing solution was prepared by diluting thereof in a buffer at a ratio of 1:100.
The compound prepared in each example was diluted with DMSO and prepared at a concentration of 100 μM, 10 μM, 1 μM or 0.1 μM using a buffer. After sequentially adding 10 μl of the compound prepared in each Example diluted to four concentrations according to the above method, 10 μl of Pin1 protein, and 30 μl of the developing solution to each well of a black 96-well plate, […]. Finally, 50 μl of the substrate was added to each well of the plate, and the enzyme reaction was carried out after shaking the plate for 10 seconds.
Then, the plate was incubated for 2 hours at room temperature in an environment without light, and the fluorescence values at 490 nm/520 nm wavelength were measured using a device of Synergy Neo […]. The results are shown in Table 2 below by dividing the grades of A to D for each concentration (μM) at which the Pin1 enzyme activity is inhibited.

Molecules are shown by their SMILES.

T1 sequence (Q13526 whole entry): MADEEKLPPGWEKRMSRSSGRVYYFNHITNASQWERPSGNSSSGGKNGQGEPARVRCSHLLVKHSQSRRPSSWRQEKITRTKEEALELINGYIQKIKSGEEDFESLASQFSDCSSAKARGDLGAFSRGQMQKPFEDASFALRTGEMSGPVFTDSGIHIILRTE

On to `CCCCOc1ccc(S(=O)(=O)NCCCc2ccc(-c3ccccc3)cc2)cc1` [Example 1, N-(3-([1,1′-biphenyl]-4-yl)propyl)-4-butoxybenzenesulfonamide], for which the IC50 is above 100 µM.

Take `CCCCOc1ccc(S(=O)(=O)NCCCN2CCN(C(C)C)CC2)cc1` [Example 2, 4-butoxy-N-(3-(4-isopropylpiperazin-1-yl)propyl)benzenesulfonamide]: the IC50 was above 100 µM.

`CCCCOc1ccc(S(=O)(=O)NCCCc2ccc(Cl)cc2)cc1` [Example 3, 4-butoxy-N-(3-(4-chlorophenyl)propyl)benzenesulfonamide]: the IC50 is above 100 µM.

As to `CCCCOc1ccc(S(=O)(=O)NCCCC2CCCCC2)cc1` [Example 4, 4-butoxy-N-(3-cyclohexylpropyl)benzenesulfonamide], the IC50 is above 100 µM.

Consider `CCCCOc1ccc(S(=O)(=O)NCCCc2cccnc2)cc1` [Example 5, 4-butoxy-N-(3-(pyridin-3-yl)propyl)benzensulfonamide], for which the IC50 was above 100 µM.

Turning to `CCCCOc1ccc(S(=O)(=O)NCCCN2CCOCC2)cc1` [Example 6, 4-butoxy-N-(3-morpholinopropyl)benzenesulfonamide], the IC50 is above 100 µM.

Turning to `CCCCOc1ccc(S(=O)(=O)NCCc2ccc(N3CCOCC3)cc2)cc1` [Example 7, 4-butoxy-N-(4-morpholinophenethyl)benzenesulfonamide], the IC50 was above 100 µM.

With `CCCCOc1ccc(S(=O)(=O)NCCc2ccc(C(=O)O)cc2)cc1` [Example 8, 4-(2-(4-butoxyphenylsulfonamido)ethyl)benzoic acid], the IC50 is above 100 µM.

Turning to `CCCCOc1ccc(S(=O)(=O)NCCc2ccc(C(=O)OC)cc2)cc1` [Example 9, methyl 4-(2-(4-butoxyphenylsulfonamido)ethyl)benzoate], the IC50 is above 100 µM.

Regarding `CCCCOc1ccc(S(=O)(=O)NCCN2CCC(Cc3ccccc3)CC2)cc1` [Example 10, N-(2-(4-benzylpiperidin-1-yl)ethyl)-4-butoxybenzenesulfonamide], the IC50 is above 100 µM.

Consider `CCCCOc1ccc(S(=O)(=O)NCCC(O)c2ccccc2)cc1` (centres unmarked) [Example 11, 4-butoxy-N-(3-hydroxy-3-phenylpropyl)benzenesulfonamide], for which the IC50 is 10 to 100 µM.

As for `CCCCOc1ccc(S(=O)(=O)NCCC(=O)c2ccccc2)cc1` [Example 12, 4-butoxy-N-(3-oxo-3-phenylpropyl)benzenesulfonamide], the IC50 lay within 10 to 100 µM.

Consider `CCCCOc1ccc(S(=O)(=O)NCCCN2CCCC2=O)cc1` [Example 13, 4-butoxy-N-(3-(2-oxopyrrolidin-1-yl)propyl)benzenesulfonamide], for which the IC50 was above 100 µM.

As for `CN(C)CCCOc1ccc(S(=O)(=O)NCCc2ccccc2)cc1` [Example 14, 4-(3-(dimethylamino)propoxy)-N-phenethylbenzenesulfonamide], the IC50 is above 100 µM.

Turning to `CN(C)CCCOc1ccc(S(=O)(=O)NCCCc2ccccc2)cc1` [Example 15, 4-(3-(dimethylamino)propoxy)-N-(3-phenylpropyl)benzenesulfonamide], the IC50 is above 100 µM.

Regarding `COC(=O)c1ccc(CCNS(=O)(=O)c2ccc(OCCCN(C)C)cc2)cc1` [Example 16, methyl 4-(2-(4-(3-(dimethylamino)propoxy)phenylsulfonamido)ethyl)benzoate], the IC50 was above 100 µM.

As for `CN(C)CCCOc1ccc(S(=O)(=O)NCCc2ccc(C(=O)O)cc2)cc1` [Example 17, 4-(2-(4-(3-(dimethylamino)propoxy)phenylsulfonamido)ethyl)benzoic acid], the IC50 was above 100 µM.

For `CN(C)CCCOc1ccc(S(=O)(=O)NCCCN2CCCC2=O)cc1` [Example 18, 4-(3-(dimethylamino)propoxy)-N-(3-(2-oxopyrrolidin-1-yl)propyl)benzenesulfonamide], the IC50 is above 100 µM.

In the case of `CCCCOc1ccc(S(=O)(=O)NCCCc2cccc3ccccc23)cc1` [Example 19, 4-butoxy-N-(3-(naphthalen-1-yl)propyl)benzenesulfonamide], the IC50 was above 100 µM.

`CCCCOc1ccc(S(=O)(=O)NCCCc2c[nH]c3ccccc23)cc1` [Example 20, N-(3-(1H-indol-3-yl)propyl)-4-butoxybenzenesulfonamide]: the IC50 was in the range of 10 to 100 µM.

As for `CN(C)CCOc1ccc(S(=O)(=O)NCCCc2c[nH]c3ccccc23)cc1` [Example 21, N-(3-(1H-indol-3-yl)propyl)-4-(2-(dimethylamino)ethoxy)benzenesulfonamide], the IC50 is 10 to 100 µM.

On to `CCCCOc1ccc(S(=O)(=O)NCCc2nc3ccccc3[nH]2)cc1` [Example 23], for which the IC50 is above 100 µM.

In the case of `CCCCOc1ccc(S(=O)(=O)NCCc2c[nH]c3ccccc23)cc1` [Example 24, N-(2-(1H-indol-3-yl)ethyl)-4-butoxybenzenesulfonamide], the IC50 is above 100 µM.

As to `CCCCOc1ccc(S(=O)(=O)NCCc2cc3ccccc3[nH]2)cc1` [Example 25, N-(2-(1H-indol-2-yl)ethyl)-4-butoxybenzenesulfonamide], the IC50 is above 100 µM.

`CC(C)CCOc1ccc(S(=O)(=O)NCCCc2c[nH]c3ccccc23)cc1` [Example 26, N-(3-(1H-indol-3-yl)propyl)-4-(isopentyloxy)benzenesulfonamide]: the IC50 lay within 10 to 100 µM.

Take `CCCCCOc1ccc(S(=O)(=O)NCCCc2c[nH]c3ccccc23)cc1` [Example 27, N-(3-(1H-indol-3-yl)propyl)-4-(pentyloxy)benzenesulfonamide]: the IC50 is 10 to 100 µM.

In the case of `CCCCOc1ccc(S(=O)(=O)NCCCc2nc3ccccc3[nH]2)cc1` [Example 28, N-(3-(1H-benzo[d]imidazol-2-yl)propyl)-4-butoxybenzenesulfonamide], the IC50 was above 100 µM.

Turning to `CCCCOc1ccc(S(=O)(=O)NCCc2c[nH]c3ccc(O)cc23)cc1` [Example 29, 4-butoxy-N-(2-(5-hydroxy-1H-indol-3-yl)ethyl)benzenesulfonamide], the IC50 is above 100 µM.

With `O=S(=O)(NCCCc1c[nH]c2ccccc12)c1ccc(OCCCN2CCOCC2)cc1` [Example 30, N-(3-(1H-indol-3-yl)propyl)-4-(3-morpholinopropoxy)benzenesulfonamide], the IC50 was above 100 µM.

As to `CCCCOc1ccc(S(=O)(=O)NCCCn2ccc3ccccc32)cc1` [Example 32, N-(3-(1H-indol-1-yl)propyl)-4-butoxybenzenesulfonamide], the IC50 is above 100 µM.

Consider `CCCCOc1ccc(S(=O)(=O)NCCCn2cnc3ccccc32)cc1` [Example 33, N-(3-(1H-benzo[d]imidazol-1-yl)propyl)-4-butoxybenzenesulfonamide], for which the IC50 is above 100 µM.

In the case of `CN(C)CCCOc1ccc(S(=O)(=O)NCCc2nc3ccccc3[nH]2)cc1` [Example 37, N-(2-(1H-benzo[d]imidazol-2-yl)ethyl)-4-(3-(dimethylamino)propoxy)benzenesulfonamide], the IC50 was above 100 µM.

For the molecule `CN(C)CCCOc1ccc(S(=O)(=O)NCCc2cc3ccccc3[nH]2)cc1` [Example 38, N-(2-(1H-indol-2-yl)ethyl)-4-(3-(dimethylamino)propoxy)benzenesulfonamide], the IC50 was above 100 µM.

In the case of `CN(C)CCCOc1ccc(S(=O)(=O)NCCCn2ccc3ccccc32)cc1` [Example 39, N-(3-(1H-indol-1-yl)propyl)-4-(3-(dimethylamino)propoxy)benzenesulfonamide], the IC50 was above 100 µM.

On to `CN(C)CCCOc1ccc(S(=O)(=O)NCCCn2cnc3ccccc32)cc1` [Example 40, N-(3-(1H-benzo[d]imidazol-1-yl)propyl)-4-(3-(dimethylamino)propoxy)benzenesulfonamide], for which the IC50 was above 100 µM.

Regarding `CN1CCN(CCCOc2ccc(S(=O)(=O)NCCCn3ccc4ccccc43)cc2)CC1` [Example 41, N-(3-(1H-indol-1-yl)propyl)-4-(3-(4-methylpiperazin-1-yl)propoxy)benzenesulfonamide], the IC50 is above 100 µM.

With `CN1CCN(CCCOc2ccc(S(=O)(=O)NCCCn3cnc4ccccc43)cc2)CC1` [Example 42, N-(3-(1H-benzo[d]imidazol-1-yl)propyl)-4-(3-(4-methylpiperazin-1-yl)propoxy)benzenesulfonamide], the IC50 is above 100 µM.

`O=S(=O)(NCCCc1c[nH]c2ccccc12)c1ccc(OCCCN2CCCCC2)cc1` [Example 43, N-(3-(1H-indol-3-yl)propyl)-4-(3-(piperidin-1-yl)propoxy)benzenesulfonamide]: the IC50 is 10 to 100 µM.

For the molecule `CN(C)CCCOc1ccc(S(=O)(=O)NCCCc2cn(C)c3ccccc23)cc1` [Example 46, 4-(3-(dimethylamino)propoxy)-N-(3-(1-methyl-1H-indole-3-yl)propyl)benzenesulfonamide], the IC50 was above 100 µM.

Regarding `O=S(=O)(NCCCc1c[nH]c2ccccc12)c1ccc(Br)cc1` [Example 47, N-(3-(1H-indole-3-yl)propyl)-4-bromobenzenesulfonamide], the IC50 is above 100 µM.

Regarding `CC(C)N1CCN(CCCOc2ccc(S(=O)(=O)NCCCc3c[nH]c4ccccc34)cc2)CC1` [Example 48, N-(3-(1H-indol-3-yl)propyl)-4-(3-(4-isopropylpiperazin-1-yl)propoxy)benzenesulfonamide], the IC50 fell in the range of 10 to 100 µM.
